This is an account of results in US11028136B2, “Tumor antigen peptide” (Sapporo Medical University, priority 2014, dated 2021).

Holding throughout (assay type): cell-based
Experiment [1] has as its system CaSki cell line. As to the kind of experiment: Stemness gene expression of siRNA-transfected cells. As to conditions: FIG. 15. How it is done: (§1) MS751 and CaSki were each transfected with siRNAs for BORIS that had been designed to have the sequences shown in the table below in accordance with the protocol described in the Instructions by the manufacturer for the Lipofectamine RNAiMAX used. Cells were analyzed 48 hours after transfection. Trilencer-27 Universal Scrambled Negative Control siRNA (SR30004, Origene) was used as a negative control.

A further experiment concerns MS751. As to the kind of experiment: Sphere formation capability of siRNA-transfected cells. The note with it: FIG. 16-1(b). How it is done: (§2) Sphere formation has been reported as being one of the indicators of cancer stem cell markers in cervical cancer. Therefore, a spheroid formation assay using a low adherent cell culture plate was carried out. Cervical cancer cell lines (CaSki, TCS, MS751, SKG-IIIb, ME-180, and SiHa) were cultured using a multi well plate having an ultra low adherent surface (Ultra Low Attachment 6-well plate, Corning). Adherent cultured cells were peeled off with a solution containing 0.25% trypsin in 2 mM EDTA, and were plated on each well at 10^3 cells/well. As a medium, one prepared by adding to a serum-free DMEM/F-12 medium 20 ng/mL of h-EGF (acquired from R&D systems), 10 ng/mL of b-FGF (acquired from R&D systems), 1% penicillin/streptomycin (acquired from GIBCO), 4 μg/mL of heparin, and a final concentration of 1% of N2 supplement (acquired from WAKO) was used, culturing was carried out under normal culturing conditions for 7 days or 14 days, and formation of spheroids of 100 μm or greater was confirmed for all of the cell lines (FIG. 1). […]
(§3) MS751 and CaSki were each transfected with siRNAs for BORIS that had been designed to have the sequences shown in the table below in accordance with the protocol described in the Instructions by the manufacturer for the Lipofectamine RNAiMAX used. Cells were analyzed 48 hours after transfection. […]

The next experiment concerns CaSki. The description is as above. The note with it: FIG. 16-1(a). How it is done: as §2, §3
Experiment [2] concerns CaSki cell line. As to the kind of experiment: Cell proliferation of siRNA-transfected cells. The note with it: FIG. 14-1(b), 14-2. Here is the method:
as §1

With “rGrGrArArArUrArCrCrArCrGrArUrGrCrArArArUrUrUrCAT [siRNA2]”, in the experiment with CaSki cell line [1], the Stemness gene suppression entry is given as “did not occur at all”. The Sphere formation capability entry in the experiment with MS751 and with CaSki was “markedly suppressed” throughout. Also, the Cell proliferation result in the experiment on CaSki cell line [2] is given as “slightly suppressed”.
